The text below walks through data of ChEMBL document CHEMBL1141186, “2-(Benzimidazol-2-yl)quinoxalines: a novel class of selective antagonists at human A(1) and A(3) adenosine receptors designed by 3D database searching” (J Med Chem, 2005).

Some results are limits rather than exact numbers.

Holding throughout (assay type): cell-based
For one experiment, the target named is T1, Adenosine receptor A1 (Homo sapiens, UniProt P30542).
T1 sequence (P30542 whole entry): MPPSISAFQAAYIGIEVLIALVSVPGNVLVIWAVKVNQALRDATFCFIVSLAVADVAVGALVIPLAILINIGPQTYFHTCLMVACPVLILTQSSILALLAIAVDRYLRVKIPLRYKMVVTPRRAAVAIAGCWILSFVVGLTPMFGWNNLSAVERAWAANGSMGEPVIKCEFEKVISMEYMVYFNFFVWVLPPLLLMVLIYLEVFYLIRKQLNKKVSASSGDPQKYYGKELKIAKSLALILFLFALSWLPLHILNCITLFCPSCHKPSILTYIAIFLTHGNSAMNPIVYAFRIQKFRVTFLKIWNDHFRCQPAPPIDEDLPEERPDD
The experiment can be described thus: Displacement of [3H]DPCPX from human adenosine A1 receptor expressed in CHO cells.

Another experiment addresses Adenosine receptor A2a (Homo sapiens, UniProt P29274). The experiment can be described thus: Displacement of [3H]NECA from human adenosine A2A receptor expressed in CHO cells.
The target of the next experiment is T2, Adenosine receptor A3 (Homo sapiens, UniProt P0DMS8).
T2 sequence (P0DMS8 whole entry): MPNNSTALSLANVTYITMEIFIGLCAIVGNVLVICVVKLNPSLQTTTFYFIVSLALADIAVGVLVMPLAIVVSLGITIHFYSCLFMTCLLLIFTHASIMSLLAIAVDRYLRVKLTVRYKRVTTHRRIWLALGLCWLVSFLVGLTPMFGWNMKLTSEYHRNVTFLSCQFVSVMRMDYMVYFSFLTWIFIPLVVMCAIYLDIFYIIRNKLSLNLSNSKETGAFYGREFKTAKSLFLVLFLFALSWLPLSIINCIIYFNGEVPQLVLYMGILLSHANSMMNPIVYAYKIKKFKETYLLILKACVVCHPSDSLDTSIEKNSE
The experiment can be described thus: Displacement of [125I]AB-MECA from human adenosine A3 receptor expressed in CHO cells. A general note: In a radioligand displacement assay an active substance lowers the binding of a labelled ligand.

Chain of Adenosine receptor A2a (P29274 whole entry): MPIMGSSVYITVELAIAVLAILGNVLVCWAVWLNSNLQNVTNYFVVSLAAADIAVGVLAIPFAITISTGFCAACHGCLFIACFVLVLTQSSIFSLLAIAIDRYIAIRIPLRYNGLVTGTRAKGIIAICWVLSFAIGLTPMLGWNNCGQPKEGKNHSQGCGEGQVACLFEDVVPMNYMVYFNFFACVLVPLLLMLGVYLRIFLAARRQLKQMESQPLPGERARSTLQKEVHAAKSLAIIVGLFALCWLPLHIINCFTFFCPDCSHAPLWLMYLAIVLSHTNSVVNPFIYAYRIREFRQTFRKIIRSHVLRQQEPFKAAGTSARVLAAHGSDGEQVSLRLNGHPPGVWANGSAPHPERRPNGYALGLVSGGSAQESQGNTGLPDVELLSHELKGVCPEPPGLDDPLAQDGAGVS

As for `Oc1c2nnnc-2nc2n1CCCS2`, the values for the Ki on Adenosine receptor A1, on Adenosine receptor A2a and at Adenosine receptor A3 were above 10000 nM, above 10000 nM and 437 nM, respectively.
For `Cc1cccc2[nH]c(-c3cnc4ccccc4n3)nc12`, the Ki turned out to be 8000 nM at Adenosine receptor A1 and 833 nM at Adenosine receptor A2a.
Turning to `CCc1nc2c3[nH]c(C)nc3c3nc(C)[nH]c3c2[nH]1`, the Ki on Adenosine receptor A1 was 496 nM; on Adenosine receptor A2a, above 10000 nM; on Adenosine receptor A3 it was 147 nM.
For `c1ccc2nc(-c3nc4ccccc4[nH]3)cnc2c1`, the inhibition constant Ki turned out to be 50 nM on Adenosine receptor A1 and 561 nM on Adenosine receptor A2a.
As to `CCc1nc2c([nH]1)c1nc(CC)[nH]c1c1nc(CC)[nH]c21`, the Ki at Adenosine receptor A1 is 46 nM; on Adenosine receptor A2a it was 720 nM; at Adenosine receptor A3 it was 104 nM.
The like results for `Clc1cc(Cl)c2[nH]c(-c3cnc4ccccc4n3)nc2c1` were, in that order, 9.3 nM, above 10000 nM and 699 nM.
As for `Clc1cccc2nc(-c3cnc4ccccc4n3)[nH]c12`, the inhibition constant (Ki) was 350 nM at Adenosine receptor A1, above 10000 nM on Adenosine receptor A2a and 140 nM at Adenosine receptor A3.
The like results for `Clc1ccc2[nH]c(-c3cnc4ccccc4n3)nc2c1` were, in that order, above 10000 nM, above 10000 nM and 632 nM.
As to `CCc1nc2c([nH]1)c1nc(C)[nH]c1c1nc(CC)[nH]c12`, the inhibitory constant (Ki) on Adenosine receptor A1 came out at 966 nM; at Adenosine receptor A2a it was 329 nM; at Adenosine receptor A3 it was 135 nM.
Turning to `Cc1nc2c([nH]1)c1nc(C)[nH]c1c1nc(C)[nH]c21`, the Ki at Adenosine receptor A1 and on Adenosine receptor A2a was above 10000 nM throughout.
Consider `c1ccc2nc(-c3nc4ncncc4[nH]3)cnc2c1`, for which the inhibition constant Ki at Adenosine receptor A1 was above 10000 nM; at Adenosine receptor A2a, above 10000 nM; at Adenosine receptor A3, above 1000 nM.
As for `CC1CSc2nc3nnnc-3c(O)n21` (configuration not stated), the Ki at Adenosine receptor A1 and on Adenosine receptor A2a was above 10000 nM each time.
As to `CCSc1cccc2[nH]c(-c3cnc4ccccc4n3)nc12`, the inhibition constant (Ki) at Adenosine receptor A1 came to 0.5 nM; at Adenosine receptor A2a, 3440 nM.
Consider `O=c1[nH]c2ccccc2nc1-c1cc(Cl)[nH]n1`, for which the inhibition constant Ki on Adenosine receptor A2a was above 10000 nM.
On to `Oc1c2nnnc-2nc2sccn12`, for which the Ki on Adenosine receptor A1 was above 10000 nM; at Adenosine receptor A2a it was above 10000 nM; on Adenosine receptor A3, above 1000 nM.
`COc1ccc2nc(-c3cnc4ccccc4n3)[nH]c2c1`: the Ki at Adenosine receptor A1 was above 10000 nM; at Adenosine receptor A2a it was above 10000 nM; on Adenosine receptor A3, above 1000 nM.
In the case of `c1ccc(-c2nnc(-c3ccccn3)[nH]2)nc1`, the Ki on Adenosine receptor A1 and on Adenosine receptor A2a was above 10000 nM throughout.
As to `Oc1c2nnnc-2nc2n1CCS2`, the inhibition constant (Ki) at Adenosine receptor A1 is above 10000 nM; at Adenosine receptor A2a it was above 10000 nM; on Adenosine receptor A3 it was above 1000 nM.
For the compound `c1ccc2nc(-c3nc4cc[nH]cc-4n3)cnc2c1`, the Ki on Adenosine receptor A1 is above 10000 nM; on Adenosine receptor A2a it was above 10000 nM; at Adenosine receptor A3 it was 168 nM.
In the case of `Cc1cc(Cl)cc2[nH]c(-c3cnc4ccccc4n3)nc12`, the figures for the Ki at Adenosine receptor A1, on Adenosine receptor A2a and at Adenosine receptor A3 were 3.6 nM, above 10000 nM and 238 nM, respectively.
The like results for `c1c[nH]c2nc(-c3cnc4ccccc4n3)nc-2c1` were, in that order, above 10000 nM, above 10000 nM and above 1000 nM.
For the compound `Cc1ccc2[nH]c(-c3cnc4ccccc4n3)nc2c1`, the results for the inhibitory constant (Ki) on Adenosine receptor A1, at Adenosine receptor A2a and at Adenosine receptor A3 were above 10000 nM, above 10000 nM and above 1000 nM, respectively.
As for `Cc1cc2nc(-c3cnc4ccccc4n3)[nH]c2cc1C`, the inhibition constant (Ki) at Adenosine receptor A1 is above 10000 nM; at Adenosine receptor A2a, above 10000 nM; at Adenosine receptor A3 it was 370 nM.
With `CSc1cccc2nc(-c3cnc4ccccc4n3)[nH]c12`, the Ki at Adenosine receptor A1 was determined as 2.1 nM; at Adenosine receptor A2a, 3000 nM; on Adenosine receptor A3, 278 nM.
The like results for `O=[N+]([O-])c1cccc2[nH]c(-c3cnc4ccccc4n3)nc12` were, in that order, above 10000 nM, above 10000 nM and 879 nM.

The Ki is a measure of affinity in units of concentration, obtained from inhibition or displacement.
